Test results reported in ChEMBL document CHEMBL3046837, “Synthesis of some novel amino and thiotetrazole purine derivatives and investigation of their antimicrobial activity and DNA interactions” (Med Chem Res, 2013).
Active and inactive are the calls of the source. The rule behind the calls is not given here.

Key:
Candida tropicalis = assay: Antifungal activity against Candida tropicalis ATCC 13803 after 72 hr by disk diffusion method; format: functional, organism-based
Candida albicans = assay: Antifungal activity against Candida albicans ATCC 10231 after 72 hr by disk diffusion method; format: functional, organism-based
Proteus vulgaris = assay: Antibacterial activity against Proteus vulgaris ATCC 8427 after 24 hr by disk diffusion method; format: functional, organism-based
Escherichia coli [1] = assay: Antibacterial activity against Escherichia coli ATCC 25922 after 24 hr by disk diffusion method; format: functional, organism-based
Escherichia coli [2] = assay: Antibacterial activity against Escherichia coli ATCC 35218 after 24 hr by disk diffusion method; format: functional, organism-based
Pseudomonas aeruginosa = assay: Antibacterial activity against Pseudomonas aeruginosa ATCC 27853 after 24 hr by disk diffusion method; format: functional, organism-based
Enterococcus faecalis = assay: Antibacterial activity against Enterococcus faecalis […] after 24 hr by disk diffusion method; format: functional, organism-based
Bacillus subtilis = assay: Antibacterial activity against Bacillus subtilis […] after 24 hr by disk diffusion method; format: functional, organism-based
Bacillus cereus = assay: Antibacterial activity against Bacillus cereus NRLL B-3008 after 24 hr by disk diffusion method; format: functional, organism-based
Staphylococcus aureus = assay: Antibacterial activity against Staphylococcus aureus ATCC 25923 after 24 hr by disk diffusion method; format: functional, organism-based
Escherichia coli [3] = assay: Binding affinity to Escherichia coli pBR322 DNA assessed as appearance of DNA fragments at low concentration after 24 hr by agarose gel electrophoresis
Escherichia coli [4] = assay: Covalent binding to Escherichia coli pBR322 DNA adenine-adenine site assessed as inhibition of Hind3-mediated restriction digestion at 1250 uM by restriction endonuclease analysis
Escherichia coli [5] = assay: Covalent binding to Escherichia coli pBR322 DNA Guanine-guanine site assessed as inhibition of BamH1-mediated restriction digestion at 1250 uM by restriction endonuclease analysis
Escherichia coli [6] = assay: Covalent binding to Escherichia coli pBR322 DNA assessed as decrease in intensity of form 2 DNA at low concentration after 24 hr by agarose gel electrophoresis
Escherichia coli [7] = assay: Covalent binding to Escherichia coli pBR322 DNA assessed as increase in intensity of form 1 DNA at low concentration after 24 hr by agarose gel electrophoresis
Escherichia coli [8] = assay: Binding affinity to Escherichia coli pBR322 DNA assessed as decrease in mobility of form 1 DNA at low concentration after 24 hr by agarose gel electrophoresis
Escherichia coli [9] = assay: Covalent binding to Escherichia coli pBR322 DNA assessed as disappearance of form 2 DNA at low concentration after 24 hr by agarose gel electrophoresis

Structure (SMILES): Cn1nnnc1Sc1ncnc2c1ncn2CC1CCCCC1
- Activity (Candida tropicalis): inactive
- Activity (Candida albicans): inactive
- Activity (Proteus vulgaris): inactive
- Activity (Escherichia coli [1]): inactive
- Activity (Escherichia coli [2]): inactive
- Activity (Pseudomonas aeruginosa): inactive
- Activity (Enterococcus faecalis): inactive
- Activity (Bacillus subtilis): inactive
- Activity (Bacillus cereus): inactive
- Activity (Staphylococcus aureus): inactive
- Activity (Escherichia coli [3]): Active
- Activity (Escherichia coli [4]): Active
- Activity (Escherichia coli [5]): Active
- Activity (Escherichia coli [6]): Active
- Activity (Escherichia coli [7]): Active

Structure (SMILES): CCCCCCn1cnc2c(Sc3nnnn3C)ncnc21
- Activity (Escherichia coli [8]): Active
- Activity (Candida tropicalis): inactive
- Activity (Candida albicans): inactive
- Activity (Proteus vulgaris): inactive
- Activity (Escherichia coli [1]): inactive
- Activity (Escherichia coli [2]): inactive
- Activity (Pseudomonas aeruginosa): inactive
- Activity (Enterococcus faecalis): inactive
- Activity (Bacillus subtilis): inactive
- Activity (Bacillus cereus): inactive
- Activity (Staphylococcus aureus): inactive
- Activity (Escherichia coli [9]): Active
- Activity (Escherichia coli [4]): Active
- Activity (Escherichia coli [5]): Active

Structure (SMILES): CCCn1cnc2c(Nc3nnn[nH]3)ncnc21
- Activity (Escherichia coli [8]): Active
- Activity (Candida tropicalis): inactive
- Activity (Candida albicans): inactive
- Activity (Proteus vulgaris): inactive
- Activity (Escherichia coli [1]): inactive
- Activity (Escherichia coli [2]): inactive
- Activity (Pseudomonas aeruginosa): inactive
- Activity (Enterococcus faecalis): inactive
- Activity (Bacillus subtilis): inactive
- Activity (Bacillus cereus): inactive
- Activity (Staphylococcus aureus): inactive
- Activity (Escherichia coli [3]): Active
- Activity (Escherichia coli [4]): Active
- Activity (Escherichia coli [5]): inactive
